Experimental data published in US20220257698A1, “ANGIOTENSIN TYPE 2 (AT2) RECEPTOR AGONISTS FOR USE IN THE TREATMENT OF CANCER” (LANTHIOPEP B.V., priority 2019, published 2022).

Tested on: head & neck carcinoma PDX model HN10309
Test: KcAng(1-7) on growth of head & neck carcinoma PDX HN10309 in mice
Assay type: in vivo, NMRI nu/nu mice (human PDX)
Protocol: In vivo studies were conducted at EPO GmbH Berlin. Large studies (FIG. 1A, 2, 3, 4, 5) comprised 3 groups of 10 mice/group and 5 animals as reserve, as outlined in Table 1. Smaller studies (FIG. 1B, 1C, 1D) comprised 2 groups of mice of 3 mice per group. The animals were allocated to the various treatment groups (e.g. 0.2 μg/kg and 30 μg/kg) with a maximum of 10 animals per group. […] The groups received subcutaneous (s.c.) drug injection (for max. 28 days) as outlined in the Table 1.
NMRI nu/nu mice were used in this study. The animals were female at age of 6 to 8 weeks. The respective PDX tumors were inoculated subcutaneously (s.c.), and the tumors were grown to achieve palpable tumor sizes before start of the respective treatments. The PDX included breast (MaCa4151), colon (Co9689A), head & neck (HN10309), lung (Lu7433) and ovarian (OvCa13329) cancer (Table 2).
Treatment with KcAng(1-7) was started with palpable tumors after the randomization of animals regarding tumor volume. KcAng(1-7) was applied s.c. by daily injections at […] or 30 μg/kg dose for a maximum of 28 days (or earlier as defined by the humane end point for the study).
KcAng(1-7) was prepared as follows: The compounds was suspended in sterile PBS resulting in a clear solution. The remains of this formulation were stored at 4° C.
Tumor growth stimulatory or inhibitory activity of the KcAng(1-7) was evaluated by determination of tumor volumes (TV). During the study, tumor volumes and body weight were measured twice a week, and the ratio of the mean tumor volumes between the compound-treated group and the vehicle-treated group (T/C) was calculated.
Tumor volume=(tumor width)×(tumor width)×(tumor length)+2
T/C=T÷C • T: Mean estimated tumor volume of the compound-treated group • C: Mean estimated tumor volume of the vehicle-treated group

[1] = Gr. B 0.2 μg/kg/d s.c., Day 35 (Meas. 1)
[2] = Gr. B 0.2 μg/kg/d s.c., Day 38 (Meas. 2)
[3] = Gr. B 0.2 μg/kg/d s.c., Day 41 (Meas. 3)
[4] = Gr. B 0.2 μg/kg/d s.c., Day 45 (Meas. 4)
[5] = Gr. B 0.2 μg/kg/d s.c., Day 49 (Meas. 5)
[6] = Gr. B 0.2 μg/kg/d s.c., Day 52 (Meas. 6)
[7] = Gr. B 0.2 μg/kg/d s.c., Day 55 (Meas. 7)
[8] = Gr. B 0.2 μg/kg/d s.c., Day 58 (Meas. 8)
[9] = Gr. B 0.2 μg/kg/d s.c., Day 63 (Meas. 9)
[10] = Gr. C 30 μg/kg/d s.c., Day 35 (Meas. 1)
[11] = Gr. C 30 μg/kg/d s.c., Day 38 (Meas. 2)
[12] = Gr. C 30 μg/kg/d s.c., Day 41 (Meas. 3)
[13] = Gr. C 30 μg/kg/d s.c., Day 45 (Meas. 4)
[14] = Gr. C 30 μg/kg/d s.c., Day 49 (Meas. 5)
[15] = Gr. C 30 μg/kg/d s.c., Day 52 (Meas. 6)
[16] = Gr. C 30 μg/kg/d s.c., Day 55 (Meas. 7)
[17] = Gr. C 30 μg/kg/d s.c., Day 58 (Meas. 8)
[18] = Gr. C 30 μg/kg/d s.c., Day 63 (Meas. 9)

“Lys-Asp-Arg-Val-Abu/Ala-Ile-His-Abu/Ala (KDRVAIHA; not fully specified; cyclic thioether (Abu/Ala bridge); VARIANT (5)..(5) /replace=“Abu”; VARIANT (8)..(8) /replace=“Abu”; SITE (1)..(8) /note=“Variant residues given in the sequence have no preference with respect to those in the annotations for variant positions”) [KcAng(1-7)]” was tested, and the optT/C (30 μg/kg, day 14 of the treatment) was 71%, the “effect on tumor volume” value (0.2 and 30 μg/kg, 28 days) was “did not result in a reduction or increase in tumor volume” and the “RTV Mean” value [1] was 1. The “RTV Median” value [1] was 1, the T/C [1] was 100.1% and the “Tumor Vol. Mean” value [1] was 0.083 cm^3. For the same substance, the “Tumor Vol. Median” value [1] was 0.064 cm^3, the “RTV Mean” value [2] was 1.6 and the “RTV Median” value [2] was 1.7. For the same substance, the T/C [2] was 107.9%, the “Tumor Vol. Mean” value [2] was 0.128 cm^3 and the “Tumor Vol. Median” value [2] was 0.085 cm^3. The “RTV Mean” value [3] was 2.1, the “RTV Median” value [3] was 2.1 and the T/C [3] was 100.6%. The “Tumor Vol. Mean” value [3] was 0.164 cm^3, the “Tumor Vol. Median” value [3] was 0.14 cm^3 and the “RTV Mean” value [4] was 2.6. The “RTV Median” value [4] was 2.5, the T/C [4] was 116.7% and the “Tumor Vol. Mean” value [4] was 0.217 cm^3. The “Tumor Vol. Median” value [4] was 0.158 cm^3, the “RTV Mean” value [5] was 3.3 and the “RTV Median” value [5] was 3.2. The T/C [5] was 104.4%, the “Tumor Vol. Mean” value [5] was 0.275 cm^3 and the “Tumor Vol. Median” value [5] was 0.209 cm^3. For the same substance, the “RTV Mean” value [6] was 4.4, the “RTV Median” value [6] was 4 and the T/C [6] was 126.7%. For the same substance, the “Tumor Vol. Mean” value [6] was 0.367 cm^3, the “Tumor Vol. Median” value [6] was 0.303 cm^3 and the “RTV Mean” value [7] was 5.4. The “RTV Median” value [7] was 4.8, the T/C [7] was 126.5% and the “Tumor Vol. Mean” value [7] was 0.443 cm^3. The “Tumor Vol. Median” value [7] was 0.366 cm^3, the “RTV Mean” value [8] was 5.8 and the “RTV Median” value [8] was 4.9. For the same substance, the T/C [8] was 115.2%, the “Tumor Vol. Mean” value [8] was 0.473 cm^3 and the “Tumor Vol. Median” value [8] was 0.437 cm^3. For the same substance, the “RTV Mean” value [9] was 8.9, the “RTV Median” value [9] was 7.3 and the T/C [9] was 120.4%. The “Tumor Vol. Mean” value [9] was 0.677 cm^3, the “Tumor Vol. Median” value [9] was 0.64 cm^3 and the “RTV Mean” value [10] was 1. For the same substance, the “RTV Median” value [10] was 1, the T/C [10] was 99.5% and the “Tumor Vol. Mean” value [10] was 0.083 cm^3. For the same substance, the “Tumor Vol. Median” value [10] was 0.077 cm^3, the “RTV Mean” value [11] was 1.3 and the “RTV Median” value [11] was 1.3. For the same substance, the T/C [11] was 83.5%, the “Tumor Vol. Mean” value [11] was 0.099 cm^3 and the “Tumor Vol. Median” value [11] was 0.092 cm^3. For the same substance, the “RTV Mean” value [12] was 1.6, the “RTV Median” value [12] was 1.5 and the T/C [12] was 74.6%. The “Tumor Vol. Mean” value [12] was 0.122 cm^3, the “Tumor Vol. Median” value [12] was 0.117 cm^3 and the “RTV Mean” value [13] was 1.8. The “RTV Median” value [13] was 1.7, the T/C [13] was 75% and the “Tumor Vol. Mean” value [13] was 0.139 cm^3. The “Tumor Vol. Median” value [13] was 0.135 cm^3, the “RTV Mean” value [14] was 2.2 and the “RTV Median” value [14] was 2.2. The T/C [14] was 71.3%, the “Tumor Vol. Mean” value [14] was 0.188 cm^3 and the “Tumor Vol. Median” value [14] was 0.187 cm^3. The “RTV Mean” value [15] was 2.8, the “RTV Median” value [15] was 2.9 and the T/C [15] was 89.8%. For the same substance, the “Tumor Vol. Mean” value [15] was 0.26 cm^3, the “Tumor Vol. Median” value [15] was 0.236 cm^3 and the “RTV Mean” value [16] was 3.5. For the same substance, the “RTV Median” value [16] was 3.5, the T/C [16] was 92.1% and the “Tumor Vol. Mean” value [16] was 0.323 cm^3. For the same substance, the “Tumor Vol. Median” value [16] was 0.283 cm^3, the “RTV Mean” value [17] was 3.9 and the “RTV Median” value [17] was 4. For the same substance, the T/C [17] was 89.3%, the “Tumor Vol. Mean” value [17] was 0.367 cm^3 and the “Tumor Vol. Median” value [17] was 0.303 cm^3. For the same substance, the “RTV Mean” value [18] was 5.6, the “RTV Median” value [18] was 5.8 and the T/C [18] was 96.3%. The “Tumor Vol. Mean” value [18] was 0.541 cm^3 and the “Tumor Vol. Median” value [18] was 0.505 cm^3.
